Read-outs that look alike come from different tables or passages of the source.
How the values were obtained:
[1] = Urinary excretion of DOPET and metabolites in healthy volunteers after oral enteric-coated capsules; type: in vivo, human; settings: for cumulative metabolites distribution in urine, mean relative area percentage with respect to all identified and unidentified compounds: 24 h urine, oral 15 mg (97.3 µmole) DOPET; for mean peak in urine: approximately 6 h after oral 15 mg (97.3 µmole) DOPET, n = 20
Experimental: (§1) The study protocol, approved by the local ethics committee (Register Protocol No. 146 17/05/2018), was conducted on 20 healthy Caucasian volunteers, aged 25–60 years with BMI ranging from 19 and 25 kg/m^2, enrolled at the University hospital facility of the Clinical Research Unit of the Department of Biomedicine and Prevention, University of Tor Vergata (Rome, Italy). Two enteric-coated capsules, each containing 7.5 mg of DOPET, were administered orally. All subjects fulfilled the following eligibility criteria: non-smokers, non-alcoholics, healthy diet, and no drugs during the experimental procedure. The administration was preceded by a 4-day washout with polyphenols and an alcoholic-free diet to avoid any interference, and by a 10-h fasting period. The study was conducted in compliance with the Declaration of Helsinki, and the selected subjects agreed to the procedure by reviewing and signing the relevant, informed consensus.
Urine samples were collected at baseline (T0) and, after the intervention, at the following mean times: 3.45, 4.18, 5.14, 6.16, 8.19, 12, and 24 h in sterile, dark polystyrene tubes (100 mL) with screw caps with 10% L-ascorbic acid as a chemical preservative. Both plasma and urine samples were immediately shipped in dry ice to the Department of Chemical, Biological, Pharmaceutical and Environmental Sciences, University of Messina (Italy) for chemical analyses, stored at −80 °C and processed within 48 h.
(§2) Plasma and urine samples were processed, before and after hydrolysis, according to Alemán-Jiménez et al., with some modifications. Briefly, plasma and urine samples were thawed at room temperature and centrifuged (10,000× g for 5 min). Sample supernatants (100 and 400 μL, respectively) were hydrolyzed by incubation with 300 UI (plasma) and 1500 UI (urine) of β-glucuronidase from Helix pomatia for 2 h at 37 °C, clarified with 200 μL of MeOH/HCl (0.2 M) and centrifuged at 10,000× g for 5 min. An SPE clean-up step, by using Strata X-AW cartridges (Phenomenex, Torrance, CA, USA) mounted on VacElut Cartridge Manifolds (Agilent Technologies, Inc., Santa Clara, CA, USA), was carried out. Cartridges were conditioned and equilibrated with 2 mL of MeOH/HCOOH (98:2, v/v) and 2 mL of water/HCOOH (98:2, v/v), respectively. After sample loading, SPE cartridges were washed with water/HCOOH (98:2, v/v). Analytes were eluted with 1 mL of MeOH/HCOOH (98:2, v/v) and dried by a gentle stream of nitrogen at room temperature. Extracts were recovered with 200 μL of the mobile phase used for the LC-DAD-ESI-MS/MS analyses (see Section 2.4). Quality control samples were prepared by spiking DOPET and metabolites (DOPAC, HVA, and MOPET) in baseline control plasma and urine samples at two different concentrations (1.2 ng/mL and 5.3 ng/mL) correspondent to the limit of quantification (LOQ) in plasma and urine samples, respectively. Both precision (CV < 10%) and accuracy (≥90%) recorded in three replicates were acceptable according to ICH and FDA guidelines.
(§3) Plasma and urinary DOPET and metabolites were analyzed by LC-DAD-ESI-MS/MS (Agilent Technologies, Inc., Santa Clara, CA, USA). Chromatographic analysis was carried out by a Luna Omega PS C18 column (150 mm × 2.1 mm, 5 µm; Phenomenex, Torrance, CA, USA) at 25 °C by using a mobile phase consisting of 0.1% HCOOH (Solvent A) and methanol (Solvent B) according to the following elution program: 0–18 min, 5% B; 18–21 min, 95% B; 21–30 min, 5% B; 30–35 min, 5%. The injection volume was 10 µL, and the flow rate was 0.4 mL/min. The UV–Vis spectra were recorded, ranging from 190 to 400 nm, and chromatograms were acquired at 280 nm. […]

[2] = set-up: method as in doi:10.1016/j.foodchem.2011.07.101; settings: after chronic or acute consumption of olive leaf supplements, 55 healthy young adults; cited from earlier work
[3] = set-up: method as in PMID 10692578; settings: 24 h; enriched olive oils, 6 healthy male volunteers; cited from earlier work
[4] = Plasma pharmacokinetics of free DOPET in healthy volunteers after oral enteric-coated capsules (DOPET in EVOO), non-compartmental analysis; type: in vivo, human
Experimental: as §1
Blood samples were collected into 10 mL test tubes containing EDTA from a subcutaneous vein using a permanent catheter inserted into the forearm at baseline (T0) and 45, 90, 123, 150, 184, 247, 386, and 440 min. Samples were centrifuged at 1700× g for 10 min at 4 °C and the obtained plasma was aliquoted into test tubes containing citric acid (2 M, 10% v/v).
as §2
as §3, with “nm. The experimental parameters of the mass spectrometer (ion trap, model 6320, Agilent Technologies, Santa Clara, CA, USA) equipped with an electrospray ionization interface operating in the negative (ESI−) and positive (ESI+) ionization mode were set as follows: 3.5 kV capillary voltage, 40 psi nebulizer (N2) pressure, 350 °C drying gas temperature, 9 L/min drying gas flow, and 40 V skimmer voltage. The acquisition was carried out in full-scan mode (90–1000 m/z).” for “nm.”

[5] = set-up: method as in PMID 20045462; settings: single oral dose 2.5 mg/kg b.w., 10 subjects; cited from earlier work
[6] = set-up: method as in PMID 17870451; settings: 100 g of olives containing 76.73 mg of DOPET, 7 healthy men; cited from earlier work
[7] = set-up: method as in PMID 12765992; settings: 25 mL of EVOO, 6 healthy volunteers; cited from earlier work
[8] = set-up: method as in PMID 23766098; settings: cited from earlier work; for Cmax: olive leaf extract
[9] = set-up: method as in PMID 32524230; settings: 5 mg DOPET conveyed in EVOO, 20 volunteers; cited from earlier work
[10] = set-up: method as in doi:10.1016/j.jff.2016.02.046; settings: cited from earlier work
[11] = set-up: method as in PMID 28452954; settings: in vitro; cited from earlier work
[12] = human, mean, n = 20, free DOPET in plasma, oral 15 mg DOPET (2 cps)

Question: Which “cumulative metabolites distribution in urine, mean relative area percentage with respect to all identified and unidentified compounds” value [1] does the source give for `O=C(O)Cc1ccc(O)c(O)c1` [DOPAC, 3,4-dihydroxyphenylacetic acid] here?
Answer: The value was 13.48%.

Question: What about the “mean peak in urine” value [1] of the same compound?
Answer: Its value is 9.93 µmol.

Question: With `C/C=C1/[C@H](O[C@@H]2O[C@H](CO)[C@@H](O)[C@H](O)[C@H]2O)OC=C(C(=O)OC)[C@H]1CC(=O)OCCc1ccc(O)c(O)c1` [oleuropein] as the compound, how does the “detection in urine samples” value [2] read?
Answer: The value was “neither oleuropein nor DOPET was detected”.

Question: Which “mean peak in urine” value [1] does the source give for `COc1cc(CC(=O)O)ccc1O` [HVA, homovanillic acid] here?
Answer: Its value is 18.39 µmol.

Question: For `COc1cc(CCO)ccc1O` [MOPET, 4-hydroxy-3-methoxyphenethanol], which “cumulative metabolites distribution in urine, mean relative area percentage with respect to all identified and unidentified compounds” value [1] is on record?
Answer: Its value is 0.94%.

Question: And the “mean peak in urine” value [1]?
Answer: Its value is 0.44 µmol.

Question: For `OCCc1ccc(O)cc1` [tyrosol], which “urine excretion with respect to the dose administered” value [3] is on record?
Answer: The value was 21–24%.

Question: With `OCCc1ccc(O)c(O)c1` [DOPET, 3,4-dihydroxyphenyl ethanol] as the compound, how does the “bioavailability compared with the literature” value ([4]; enteric-coated capsule, DOPET in EVOO, versus previous results at the same dose administered) read?
Answer: Its value is “about 2.5 times”.

Question: What about the Cmax ([4]; human, plasma, po, 15 mg, mean, n = 20, free DOPET in plasma, oral 15 mg DOPET (2 cps), read-out: Cmax) of the same compound?
Answer: Its Cmax is 5.5 ng/mL.

Question: What about the Tmax [4, 12] of the same compound?
Answer: The Tmax was 2.05 h.

Question: What about the half-life [4, 12] of the same compound?
Answer: Its half-life is 151 min.

Question: What about the AUCextrap_pred ([4]; mean, n = 20, fraction of total AUC due to extrapolated AUC, oral 15 mg DOPET) of the same compound?
Answer: The AUCextrap_pred was 18.23%.

Question: What about the Cmax ([4]; mean, n = 20, free DOPET in plasma, oral 15 mg DOPET (2 cps)) of the same compound?
Answer: Its Cmax is 5.48 ng/mL.

Question: And the “cumulative metabolites distribution in urine, mean relative area percentage with respect to all identified and unidentified compounds” value [1]?
Answer: Its value is 8.49%.

Question: What about the “mean peak in urine” value [1] of the same compound?
Answer: Its value is 4.67 µmol.

Question: And the Cmax [5]?
Answer: Its Cmax is 1110 nM.

Question: And the “time of maximum plasma concentration” value [5]?
Answer: The value was 13 min.

Question: What about the “plasma concentration at Cmax” value [6] of the same compound?
Answer: The value was 3.15 µg/mL.

Question: What about the “time to Cmax” value [6] of the same compound?
Answer: The value was 1 h.

Question: And the Cmax [7]?
Answer: Its Cmax is 25.83 ng/mL.

Question: What about the Tmax [7] of the same compound?
Answer: The Tmax was 58 min.

Question: And the Cmax ([8]; capsule matrix)?
Answer: Its Cmax is 56 ng/mL.

Question: And the Cmax ([8]; liquid matrix)?
Answer: The Cmax was 59 ng/mL.

Question: And the “decrease of Tmax” value ([8]; passing from encapsulated to the liquid formulation)?
Answer: Its value is “about 30 min”.

Question: And the Cmax [9]?
Answer: The Cmax was 3.79 ng/mL.

Question: What about the “time to Cmax” value [9] of the same compound?
Answer: Its value is 30 min.

Question: What about the “urine excretion with respect to the dose administered” value [3] of the same compound?
Answer: Its value is 29–40%.

Question: And the “urine levels of DOPET and its metabolites, share of the DOPET administered” value ([10]; 5 mg of DOPET/day for one week)?
Answer: Its value is 21%.

Question: And the “urine levels of DOPET and its metabolites, share of the DOPET administered” value ([10]; 25 mg of DOPET/day for one week)?
Answer: The value was 28%.

Question: What about the “forms of DOPET excreted in urine” value ([10]; 5 or 25 mg of DOPET/day for one week) of the same compound?
Answer: Its value is 0–0.02%.

Question: What about the “detection in urine samples” value [2] of the same compound?
Answer: Its value is “neither oleuropein nor DOPET was detected”.

Question: And the genotoxicity or mutagenicity [11]?
Answer: The genotoxicity or mutagenicity was “does not exhibit any genotoxicity or mutagenicity”.
